Results reported in publication PMC10657792, “Downstream Allosteric Modulation of NMDA Receptors by 3-Benzazepine Derivatives” (Molecular Neurobiology, 2023).
Converted amounts (≈) assume the structure as drawn.

Experiments:
[1] = target: GluN1a wt/ GluN2B F194A (Rattus norvegicus, UniProt P35439+Q00960, F194A); experiment: TEVC recording in X. laevis oocytes, GluN2B mutant screening; format: cell-based; details: fitted curve
Protocol: (§1) Single point mutations were incorporated into template DNA (GluN1-1b wt/ pSGEM and GluN2B wt/ pSGEM) by using the QuikChange II XL site-directed mutagenesis kit (Agilent Technologies, Germany). Mutagenesis primers were designed using the QuikChange Primer Design Program (Agilent) and provided by Microsynth (Microsynth AG, Balgach, Switzerland). For mutation of the desired amino acid in the gene, PCR amplification was performed with the respective mutagenesis primers (Eppendorf MasterCycler Gradient, Eppendorf Hamburg, Germany). Mutations were verified by automated DNA sequencing. Constructs were linearized with PacI (GluN1) or NheI (GluN2B). cRNA was prepared byin vitrotranscription using the mMessage mMachine T7 kit (Life Technologies, Darmstadt, Germany).
(§2) The NMDAR was expressed in stage V and VI oocytes originated from X. laevis. Oocytes were provided by Ecocyte Bioscience (Dortmund, Germany), and equimolar amounts of wild-type and mutated GluN1 and GluN2B cRNA were injected (0.8 ng each). The oocytes were incubated in Barth’s solution, containing (mmol l^−1): 88 NaCl, 1 KCl, 0.4 CaCl2, 0.33 Ca(NO3)2, 0.6 MgSO4, 5 TRIS–HCl, 2.4 NaHCO3, supplemented with 80 mg l^−1 theophylline, 63 mg l^−1 benzylpenicillin, 40 mg l^−1 streptomycin, and 100 mg l^−1 gentamycin and maintained at 18 °C until usage. After injection, the oocytes were incubated for 5 days at 18 °C. Subsequently, the activity of the expressed NMDARs in the oocytes was recorded by two-electrode voltage clamp (TEVC).
(§3) The compounds were retrieved as 10 mM stock solutions in DMSO and were subsequently diluted with agonist solution and adjusted to 0.1% DMSO concentration. Inhibition of each compound was measured via TEVC in X. laevis oocytes at room temperature using a Turbo Tec 10CX amplifier (NPI electronic, Tamm, Germany), NI USB 6221 DA/AD Interface (National Instruments, Austin, USA), and GePulse Software (Dr. Michael Pusch, Genova, Italy). Ba^2+-Ringer, consisting of 10 mM HEPES, 90 mM NaCl, 1 mM KCl, and 1.5 mM BaCl2, adjusted to pH 7.4, was used for TEVC measurements. Agonist solution containing 10 µM glycine and 10 µM (S)-glutamate was prepared in Ba^2+-Ringer, and the measurements were performed at a holding potential of − 70 mV, using electrodes with a glass capillary filled with 3 M KCl and a resistance between 0.5 and 1.5 MΩ. The compounds were tested by applying ascending concentrations, ranging from 1 to 30,000 nM, in at least six oocytes. Example traces for all recorded conditions can be found in Supplementary Figs. S2–S9.
(§4) TEVC data were analyzed using Ana (Dr. Michael Pusch, Genova, Italy), and statistics were performed using OriginPro 2020 (OriginLab Corporation, Northampton, USA). The inhibitory effect of each compound is calculated using the following equation: inhibition=1-Ic-Ih/Ia-Ih where Ih describes the current in the absence of agonists; Ia represents the steady-state current in the presence of the agonists; and Ic is defined as the steady-state after binding of agonist and compound. All dose response curves are fitted to the following logistic equation: y=A1-A2/1+x/x0^p+A2 where A1 describes the minimal inhibition of a compound and was set to 0; A2 represents the maximal inhibition of a compound; p is the slope of the curve; x0 is defined as the concentration at half-maximal inhibition; and x is the tested concentration. Data were statistically analyzed by one-way ANOVA and Tukey post-hoc mean comparison test in OriginPro 2020 (OriginLab Corporation, Northampton, USA). p values are indicated by * for p < 0.05, ** for p < 0.01, and *** for p < 0.001.

[2] = target: GluN1b wt/ GluN2B F176A (Rattus norvegicus, UniProt P35439+Q00960, F176A); experiment: as above; format: cell-based
Protocol: as §1, §2, §3, §4

[3] = target: GluN1b wt/ GluN2B F194A (Rattus norvegicus, UniProt P35439+Q00960, F194A); experiment: as above; format: cell-based
Protocol: as §1, §2, §3, §4

[4] = target: GluN1b wt/ GluN2B N192A (Rattus norvegicus, UniProt P35439+Q00960, N192A); experiment: as above; format: cell-based
Protocol: as §1, §2, §3, §4

[5] = Solubility limit in TEVC compound solution; format: physicochemical; details: higher concentrations could not be tested in TEVC
[6] = agonists 10 µM glycine + 10 µM (S)-glutamate, fitted curve

Sequence of GluN1b wt/ GluN2B F176A (Q00960 27-1482 F176A, other chains not shown): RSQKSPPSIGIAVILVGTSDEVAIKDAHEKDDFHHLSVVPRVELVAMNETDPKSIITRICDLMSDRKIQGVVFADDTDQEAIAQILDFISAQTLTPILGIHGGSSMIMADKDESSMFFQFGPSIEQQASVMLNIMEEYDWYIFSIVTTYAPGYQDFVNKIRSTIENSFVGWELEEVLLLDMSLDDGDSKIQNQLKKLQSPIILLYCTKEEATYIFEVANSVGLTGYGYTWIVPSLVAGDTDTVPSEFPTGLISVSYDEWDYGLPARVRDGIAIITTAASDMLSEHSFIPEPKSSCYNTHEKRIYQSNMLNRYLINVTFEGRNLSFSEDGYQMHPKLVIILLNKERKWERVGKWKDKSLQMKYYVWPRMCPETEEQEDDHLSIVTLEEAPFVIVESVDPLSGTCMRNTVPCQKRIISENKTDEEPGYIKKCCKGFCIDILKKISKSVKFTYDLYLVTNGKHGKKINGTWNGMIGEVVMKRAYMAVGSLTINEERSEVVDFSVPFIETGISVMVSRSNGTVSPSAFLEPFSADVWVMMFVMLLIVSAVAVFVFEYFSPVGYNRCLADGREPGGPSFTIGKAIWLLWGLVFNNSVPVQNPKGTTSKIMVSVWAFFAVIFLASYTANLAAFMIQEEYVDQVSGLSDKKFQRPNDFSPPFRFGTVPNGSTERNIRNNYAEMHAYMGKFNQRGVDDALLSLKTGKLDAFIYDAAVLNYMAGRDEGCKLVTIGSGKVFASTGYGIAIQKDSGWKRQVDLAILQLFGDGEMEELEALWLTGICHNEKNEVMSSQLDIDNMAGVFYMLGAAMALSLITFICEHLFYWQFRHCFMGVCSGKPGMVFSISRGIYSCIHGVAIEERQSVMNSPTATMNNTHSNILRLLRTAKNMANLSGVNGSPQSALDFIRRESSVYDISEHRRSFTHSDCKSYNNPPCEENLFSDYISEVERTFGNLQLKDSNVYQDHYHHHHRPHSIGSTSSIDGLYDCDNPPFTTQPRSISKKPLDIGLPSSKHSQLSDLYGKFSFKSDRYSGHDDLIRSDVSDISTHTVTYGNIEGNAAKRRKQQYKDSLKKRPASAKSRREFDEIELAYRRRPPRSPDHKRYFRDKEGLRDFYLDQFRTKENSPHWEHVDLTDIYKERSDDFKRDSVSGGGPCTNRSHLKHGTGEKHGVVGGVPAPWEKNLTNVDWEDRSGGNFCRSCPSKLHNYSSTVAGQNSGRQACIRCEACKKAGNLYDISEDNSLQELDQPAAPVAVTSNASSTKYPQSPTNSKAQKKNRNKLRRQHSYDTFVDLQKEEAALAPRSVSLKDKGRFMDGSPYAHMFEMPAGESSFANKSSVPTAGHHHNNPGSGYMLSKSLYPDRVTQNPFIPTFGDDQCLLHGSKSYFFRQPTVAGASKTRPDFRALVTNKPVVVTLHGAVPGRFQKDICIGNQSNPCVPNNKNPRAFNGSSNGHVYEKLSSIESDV
Sequence of GluN1b wt/ GluN2B F194A (Q00960 27-1482 F194A, other chains not shown): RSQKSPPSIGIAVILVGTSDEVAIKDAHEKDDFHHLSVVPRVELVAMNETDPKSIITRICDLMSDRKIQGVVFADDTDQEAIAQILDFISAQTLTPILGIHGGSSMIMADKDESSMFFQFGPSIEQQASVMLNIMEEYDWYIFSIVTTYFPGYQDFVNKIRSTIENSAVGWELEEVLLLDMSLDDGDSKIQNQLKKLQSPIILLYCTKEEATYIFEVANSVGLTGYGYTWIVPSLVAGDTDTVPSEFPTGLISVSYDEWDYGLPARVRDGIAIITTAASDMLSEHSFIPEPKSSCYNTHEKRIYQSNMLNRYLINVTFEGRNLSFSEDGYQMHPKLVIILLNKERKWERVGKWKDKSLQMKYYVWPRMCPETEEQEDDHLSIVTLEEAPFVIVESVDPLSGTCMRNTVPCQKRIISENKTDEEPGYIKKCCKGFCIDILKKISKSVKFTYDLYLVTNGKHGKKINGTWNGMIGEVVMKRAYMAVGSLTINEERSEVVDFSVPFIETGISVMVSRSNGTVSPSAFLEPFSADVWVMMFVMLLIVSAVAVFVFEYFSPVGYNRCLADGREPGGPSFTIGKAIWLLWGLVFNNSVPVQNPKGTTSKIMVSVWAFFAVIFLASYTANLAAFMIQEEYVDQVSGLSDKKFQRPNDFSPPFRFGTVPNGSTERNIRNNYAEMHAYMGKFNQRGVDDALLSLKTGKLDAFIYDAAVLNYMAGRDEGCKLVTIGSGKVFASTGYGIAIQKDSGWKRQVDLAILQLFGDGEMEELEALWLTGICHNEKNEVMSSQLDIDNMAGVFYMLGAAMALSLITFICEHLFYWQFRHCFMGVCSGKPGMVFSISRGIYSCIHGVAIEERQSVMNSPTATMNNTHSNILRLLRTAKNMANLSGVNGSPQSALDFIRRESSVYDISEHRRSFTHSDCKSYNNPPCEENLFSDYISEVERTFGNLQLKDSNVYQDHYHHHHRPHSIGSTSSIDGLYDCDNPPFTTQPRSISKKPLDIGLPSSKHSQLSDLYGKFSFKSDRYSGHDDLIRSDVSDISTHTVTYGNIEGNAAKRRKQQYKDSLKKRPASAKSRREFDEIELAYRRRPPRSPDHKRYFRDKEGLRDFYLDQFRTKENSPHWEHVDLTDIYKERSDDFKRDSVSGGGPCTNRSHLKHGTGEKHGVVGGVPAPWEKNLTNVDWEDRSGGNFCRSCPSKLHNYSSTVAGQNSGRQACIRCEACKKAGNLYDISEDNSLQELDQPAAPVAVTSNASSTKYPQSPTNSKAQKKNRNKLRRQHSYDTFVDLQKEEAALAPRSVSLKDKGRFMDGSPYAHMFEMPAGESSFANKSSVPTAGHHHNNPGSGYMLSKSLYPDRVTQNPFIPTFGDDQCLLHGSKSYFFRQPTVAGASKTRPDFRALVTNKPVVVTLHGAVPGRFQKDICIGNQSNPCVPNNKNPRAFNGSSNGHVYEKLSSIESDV
Sequence of GluN1b wt/ GluN2B N192A (Q00960 27-1482 N192A, other chains not shown): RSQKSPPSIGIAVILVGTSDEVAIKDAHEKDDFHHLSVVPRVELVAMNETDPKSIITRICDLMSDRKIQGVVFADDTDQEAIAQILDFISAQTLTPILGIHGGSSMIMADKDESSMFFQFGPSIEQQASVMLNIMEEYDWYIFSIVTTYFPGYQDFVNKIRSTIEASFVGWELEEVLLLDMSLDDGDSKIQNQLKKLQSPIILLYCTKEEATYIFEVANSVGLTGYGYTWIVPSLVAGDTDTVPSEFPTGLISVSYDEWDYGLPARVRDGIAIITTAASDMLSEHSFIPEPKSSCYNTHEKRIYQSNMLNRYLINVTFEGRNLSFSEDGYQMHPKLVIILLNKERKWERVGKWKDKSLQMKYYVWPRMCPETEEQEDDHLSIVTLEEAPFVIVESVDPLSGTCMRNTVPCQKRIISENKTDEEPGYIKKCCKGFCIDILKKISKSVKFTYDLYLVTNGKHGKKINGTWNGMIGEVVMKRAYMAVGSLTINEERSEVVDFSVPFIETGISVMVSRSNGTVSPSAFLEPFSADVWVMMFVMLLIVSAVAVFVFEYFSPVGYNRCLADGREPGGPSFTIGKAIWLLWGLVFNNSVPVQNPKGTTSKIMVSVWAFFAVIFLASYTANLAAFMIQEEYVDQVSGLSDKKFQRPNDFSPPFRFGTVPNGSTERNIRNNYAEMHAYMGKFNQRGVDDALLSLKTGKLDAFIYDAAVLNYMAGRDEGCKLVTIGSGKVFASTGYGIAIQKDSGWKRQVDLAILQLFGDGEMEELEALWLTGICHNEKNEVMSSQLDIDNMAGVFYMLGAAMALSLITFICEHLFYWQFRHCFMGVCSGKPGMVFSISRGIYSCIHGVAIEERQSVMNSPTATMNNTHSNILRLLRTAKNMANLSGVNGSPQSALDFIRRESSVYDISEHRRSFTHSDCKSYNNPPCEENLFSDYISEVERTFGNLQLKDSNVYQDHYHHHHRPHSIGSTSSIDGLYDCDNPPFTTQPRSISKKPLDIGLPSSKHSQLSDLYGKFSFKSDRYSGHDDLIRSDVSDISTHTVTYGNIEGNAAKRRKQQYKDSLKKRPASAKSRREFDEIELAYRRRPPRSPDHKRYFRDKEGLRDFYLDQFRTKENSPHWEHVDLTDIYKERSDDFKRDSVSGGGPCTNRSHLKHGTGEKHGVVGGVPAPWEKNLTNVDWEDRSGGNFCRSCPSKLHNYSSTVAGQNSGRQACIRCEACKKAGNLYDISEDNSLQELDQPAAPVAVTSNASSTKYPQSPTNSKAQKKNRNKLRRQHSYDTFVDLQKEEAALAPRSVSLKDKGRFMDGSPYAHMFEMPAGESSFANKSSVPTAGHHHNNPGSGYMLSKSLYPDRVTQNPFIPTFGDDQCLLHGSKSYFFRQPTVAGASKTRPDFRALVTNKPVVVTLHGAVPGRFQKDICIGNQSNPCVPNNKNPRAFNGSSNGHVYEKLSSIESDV

With `Oc1ccc2c(c1)CCN(CCCCc1ccccc1F)C[C@@H]2O` [(R)-OF-NB1] the IC50 ([1]; agonists 10 µM glycine + 10 µM (S)-glutamate) was 16.6 µM, the Hill coefficient [1] was 0.4 and the inhibition at 1 µM ([2]; GluN1-1b/F176A, compound concentration 1 μM, single oocytes) was 17.7%. The inhibition at 10 µM ([2]; GluN1-1b/F176A, compound concentration 10 μM, single oocytes) was 29.9%, the IC50 [2, 6] was 13.6 µM and the Hill coefficient ([2]; fitted curve) was 0.5. The inhibition at 1 µM ([3]; GluN1-1b GluN2B F194A, compound concentration 1 μM, single oocytes) was 39.3%, the inhibition at 30 µM ([3]; GluN1-1b GluN2B F194A, compound concentration 30 μM, single oocytes) was 51.8% and the IC50 [3, 6] was 3.84 µM. For the same molecule, the Hill coefficient ([3]; fitted curve) was 0.5, the inhibition at 10 µM ([4]; GluN1-1b GluN2B N192A, compound concentration 10 μM, single oocytes) was 69.9% and the inhibition at 30 µM ([4]; GluN1-1b GluN2B N192A, compound concentration 30 μM, single oocytes) was 76.3%. For the same molecule, the IC50 [4, 6] was 567 nM, the Hill coefficient ([4]; fitted curve) was 1.3 and the solubility [5] was 30 µM (≈ 9.88 µg/mL).
